# In patent US10800732B2, “Substituted malonamides and their use as antibacterial drugs” (National Taiwan University, priority 2015, dated 2020):
# “And” between values parts separate entries of the source, which are not always exact repeats. Identical values can stand only once. Like-named read-outs stand apart in the source and are kept apart here.
# Assays:
# S. aureus NCTC 8325 [1] = experiment: MIC, S. aureus NCTC 8325 (CLSI broth microdilution / agar dilution); format: cell-based, Staphylococcus aureus
# S. aureus ATCC 12598 = experiment: MIC, S. aureus ATCC 12598; format: cell-based, Staphylococcus aureus
# [2] = test system: S. epidermidis ATCC 12228; experiment: MIC, S. epidermidis ATCC 12228; format: cell-based; settings: S. epidermidis ATCC 12228
# [3] = test system: S. epidermidis ATCC 35984; experiment: MIC, S. epidermidis ATCC 35984; format: cell-based
# MRSA ATCC 33592 = experiment: MIC, MRSA ATCC 33592; format: cell-based, methicillin-resistant Staphylococcus aureus; settings: MRSA ATCC 33592
# MRSA ATCC 49476 = experiment: MIC, MRSA ATCC 49476; format: cell-based, methicillin-resistant Staphylococcus aureus; settings: MRSA ATCC 49476
# MRSA SCCmec VT = experiment: MIC, MRSA SCCmec VT; format: cell-based, methicillin-resistant Staphylococcus aureus
# HEK-293 = experiment: Antiproliferative activity, HEK-293; format: cell-based, human; settings: for IC50: HEK-293, antiproliferative
# Protocol: (§1) In addition to the antibacterial activities, the cytotoxic effects of these malonate derivatives on human cancer cell lines were also assessed.
# K-562 = experiment: Antiproliferative activity, K-562; format: cell-based, human; settings: for IC50: K-562, antiproliferative
# Protocol: as §1
# HT-29 = experiment: Antiproliferative activity, HT-29; format: cell-based, human; settings: for IC50: HT-29, antiproliferative
# Protocol: as §1
# [4] = test system: S. haemolyticus (ATCC 29970); experiment: MIC, S. haemolyticus; format: cell-based
# S. hominis (ATCC 27844) = experiment: MIC, S. hominis; format: cell-based
# [5] = test system: S. intermedius (ATCC 29663); experiment: MIC, S. intermedius; format: cell-based
# [6] = test system: S. saprophyticus (ATCC 15305); experiment: MIC, S. saprophyticus; format: cell-based
# [7] = test system: S. lugdunesis (NTUH isolate); experiment: MIC, S. lugdunesis; format: cell-based
# [8] = test system: clinical isolated VISA strain; experiment: MIC, VISA; format: cell-based, vancomycin-intermediate Staphylococcus aureus; settings: VISA, clinical isolate
# VRSA (SJC1200) = experiment: MIC, VRSA; format: cell-based, vancomycin-resistant Staphylococcus aureus; settings: VRSA (SJC1200)
# Clinical isolated MRSAs = experiment: MIC90, one hundred clinical isolated MRSA strains; format: cell-based, methicillin-resistant Staphylococcus aureus; settings: one hundred clinical isolated MRSA from NTUH, concentration that inhibits 90% of strains tested
# [9] = test system: Enterococcus faecalis ATCC 19433; experiment: MIC, Enterococcus faecalis; format: cell-based
# [10] = test system: Enterococcus faecium ATCC 35667; experiment: MIC, Enterococcus faecium ATCC 35667; format: cell-based
# [11] = test system: Enterococcus faecium ATCC 19434; experiment: MIC, Enterococcus faecium ATCC 19434; format: cell-based
# VR-E. faecium = experiment: MIC, VR-E. faecium; format: cell-based, vancomycin resistant Enterococcus faecium
# [12] = test system: Bacillus cereus ATCC 11778; experiment: MIC, Bacillus cereus; format: cell-based
# [13] = test system: Bacillus subtilis BCRC 10255; experiment: MIC, Bacillus subtilis; format: cell-based
# [14] = test system: Corynebacterium diphtheriae ATCC 11913; experiment: MIC, Corynebacterium diphtheriae; format: cell-based
# [15] = test system: Listeria monocytogenes ATCC 19113; experiment: MIC, Listeria monocytogenes; format: cell-based
# [16] = test system: Clostridium difficile 630; experiment: MIC, Clostridium difficile 630; format: cell-based
# [17] = test system: Mycobacterium tuberculosis H37Ra; experiment: MIC, Mycobacterium tuberculosis; format: cell-based
# S. aureus NCTC 8325 [18] = experiment: Time-kill kinetics; format: cell-based, Staphylococcus aureus; settings: for reduction in CFU: 24-h treatment period; for bactericidal / bacteriostatic classification: killing over 99.9% of inoculum within 24 hours
# [19] = test system: MSSA ATCC 29213 or MRSA ATCC 33592; experiment: Survival of MSSA- or MRSA-infected C. elegans; format: in vivo, Caenorhabditis elegans; settings: 2- to 8-folds of MIC in S-medium, versus DMSO control
# Protocol: (§2) FIG. 2. SC5005 protects C. elegans from S. aureus infection. Effect of SC78 and SC5005 on the survival of MSSA- or MRSA-infected C. elegans was assessed. The glp-4(bn2) C. elegans were fed on E. coli (OP50), MSSA (ATCC 29213) or MRSA (ATCC 33592) followed by exposing to SC78 or SC5005 at concentrations of 2-, 4-, 8-folds of respective MIC in S-medium. The survival of worms was monitored daily till the end of the study. The survival of animals fed with E. coli (OP50) and receiving DMSO only was served as a control to show the normal life-span of C. elegans.
# Caenorhabditis elegans has been broadly used as a model host for the studies of human infectious diseases, including infections caused by S. aureus. To investigate whether SC78 and SC5005 can suppress the infection of S. aureus in C. elegans, worms were infected with MSSA ATCC 29213 or MRSA ATCC 33592 followed by exposing to individual drugs at concentrations of 2- to 8-folds of respective MIC in S-medium. Control groups were treated with DMSO at concentration equal to that of drug treated groups (final concentration, 0.1%).
# C. elegans = experiment: Toxic effects on E. coli (OP50)-fed C. elegans; format: in vivo, Caenorhabditis elegans; settings: escalating doses in S-medium
# Protocol: as §2
# Meanwhile, the toxic effects of these agents on C. elegans were also assessed. E. coli (OP50)-fed worms were exposed to escalating doses of SC78 and SC5005 in S-medium followed by monitoring of their survival daily.
# S. aureus NCTC 8325 [20] = format: cell-based, Staphylococcus aureus; settings: 200-day exposure to sub-lethal concentrations
# [21] = S. epidermidis (ATCC 35984), Table 3
# [22] = Staphylococcus aureus, read-out: MIC
smiles,measurement,setting,value
O=C(Nc1ccc(Cl)c(C(F)(F)F)c1)Nc1ccc(Cl)c(C(F)(F)F)c1 [SC78],MIC,"S. aureus NCTC 8325 [1]; S. aureus (NCTC 8325), Table 3",0.25 µg/mL
same,MIC,"S. aureus NCTC 8325 [1]; S. aureus NCTC 8325, Table 2",0.25 µg/mL
same,MIC,"S. aureus NCTC 8325 [1]; Staphylococcus aureus, NCTC8325, S. aureus NCTC 8325, read-out: MIC",0.25 µg/mL
same,MIC,"S. aureus ATCC 12598; Staphylococcus aureus, ATCC12598, read-out: MIC",0.25 µg/mL
same,MIC,"[2]; Staphylococcus epidermidis, ATCC12228, read-out: MIC",0.25 µg/mL
same,MIC,[3]; [21],0.25 µg/mL
same,MIC,"[3]; Staphylococcus epidermidis, ATCC35984, S. epidermidis ATCC 35984, read-out: MIC",0.25 µg/mL
same,MIC,MRSA ATCC 33592; [22],0.25 µg/mL
same,MIC,MRSA ATCC 49476; [22],25 µg/mL
same,MIC,"MRSA SCCmec VT; Staphylococcus aureus, MRSA SCCmec VT, read-out: MIC",0.25 µg/mL
same,IC50,"HEK-293; Homo sapiens, HEK293, read-out: IC50",1.13 µg/mL
same,Selectivity ratio,HEK-293; IC50 (HEK-293)/MIC against S. aureus,4.52
same,IC50,"K-562; Homo sapiens, K562, read-out: IC50",4.73 µg/mL
same,Selectivity ratio,K-562; IC50 (K-562)/MIC against S. aureus,18.92
same,IC50,"HT-29; Homo sapiens, read-out: IC50",4.51 µg/mL
same,Selectivity ratio,HT-29; IC50 (HT-29)/MIC against S. aureus,18.04
same,MIC,"[4]; Staphylococcus haemolyticus, ATCC29970, read-out: MIC",0.5 µg/mL
same,MIC,"S. hominis (ATCC 27844); Staphylococcus hominis, ATCC27844, read-out: MIC",0.25 µg/mL
same,MIC,[5]; read-out: MIC,1 µg/mL
same,MIC,"[6]; Staphylococcus saprophyticus, ATCC15305, read-out: MIC",0.25 µg/mL
same,MIC,[7]; read-out: MIC,0.25 µg/mL
same,MIC,[8]; [22],0.25 µg/mL
same,MIC,VRSA (SJC1200); [22],0.25 µg/mL
same,MIC90,"Clinical isolated MRSAs; Staphylococcus aureus, read-out: MIC90",0.25 µg/mL
same,MIC,"[9]; ATCC19433, read-out: MIC",0.25 µg/mL
same,MIC,"[10]; ATCC35667, read-out: MIC",0.25 µg/mL
same,MIC,"[11]; ATCC19434, read-out: MIC",0.5 µg/mL
same,MIC,"VR-E. faecium; Enterococcus faecium, read-out: MIC",0.25 µg/mL
same,MIC,"[12]; ATCC11778, read-out: MIC",0.25 µg/mL
same,MIC,"[13]; BCRC10255, read-out: MIC",0.25 µg/mL
same,MIC,"[14]; ATCC11913, read-out: MIC",0.25 µg/mL
same,MIC,"[15]; ATCC19113, read-out: MIC",0.0625 µg/mL
same,MIC,"[16]; Clostridioides difficile, read-out: MIC",0.5 µg/mL
same,MIC,[17]; read-out: MIC,1 µg/mL
same,reduction in CFU,S. aureus NCTC 8325 [18]; 8-folds of MIC,over 99.9%
same,bactericidal / bacteriostatic classification,S. aureus NCTC 8325 [18],bactericidal
same,survival of MSSA- or MRSA-infected worms,[19],no significant difference was observed in the survival
same,survival of worms fed with OP50 (toxicity),C. elegans,significantly decreased
same,resistance after consecutive exposure,S. aureus NCTC 8325 [20],no resistance was observed
O=C(Nc1ccc(Cl)c(C(F)(F)F)c1)C(CCCl)C(=O)Nc1ccc(Cl)c(C(F)(F)F)c1 [SC5005],MIC,"S. aureus NCTC 8325 [1]; MSSA NCTC 8325, Table 6",0.5 µg/mL
same,MIC,"S. aureus NCTC 8325 [1]; S. aureus (NCTC 8325), Table 3",0.5 µg/mL
same,MIC,S. aureus NCTC 8325 [1]; S. aureus NCTC 8325,0.5 µg/mL
same,MIC,"S. aureus NCTC 8325 [1]; S. aureus NCTC 8325, Table 2",0.5 µg/mL
same,MIC,S. aureus ATCC 12598,0.5 µg/mL
same,MIC,[2],0.5 µg/mL
same,MIC,[3]; [21],0.5 µg/mL
same,MIC,[3]; S. epidermidis ATCC 35984,0.5 µg/mL
same,MIC,MRSA ATCC 33592,0.5 µg/mL
same,MIC,MRSA ATCC 33592; Table 6,0.5 µg/mL
same,MIC,MRSA ATCC 49476,0.5 µg/mL
same,MIC,MRSA SCCmec VT; MRSA SCCmec VT,0.5 µg/mL
same,MIC,"MRSA SCCmec VT; SCCmec VT, Table 6",0.5 µg/mL
same,IC50,HEK-293,16.79 µg/mL
same,IC50,K-562,20.23 µg/mL
same,IC50,HT-29,14.56 µg/mL
same,MIC,[4],1 µg/mL
same,MIC,S. hominis (ATCC 27844),0.25 µg/mL
same,MIC,[5],1 µg/mL
same,MIC,[6],0.5 µg/mL
same,MIC,[7],0.5 µg/mL
same,MIC,[8],0.5 µg/mL
same,MIC,VRSA (SJC1200),0.5 µg/mL
same,MIC90,Clinical isolated MRSAs,0.5 mg/L and 0.5^b mg/L
same,MIC,[9],0.5 µg/mL
same,MIC,[10],0.5 µg/mL
same,MIC,[11],1 µg/mL
same,MIC,VR-E. faecium,0.5 µg/mL
same,MIC,[12],0.5 µg/mL
same,MIC,[13],0.5 µg/mL
same,MIC,[14],0.5 µg/mL
same,MIC,[15],0.125 µg/mL
same,MIC,[16],0.5 µg/mL
same,MIC,[17],16 µg/mL
same,reduction in CFU,S. aureus NCTC 8325 [18]; 4-folds of MIC,99.91%
same,reduction in CFU,S. aureus NCTC 8325 [18]; 8-folds of MIC,99.95%
same,bactericidal / bacteriostatic classification,S. aureus NCTC 8325 [18],bactericidal
same,survival of MSSA- or MRSA-infected worms,[19],significant increase in the mean survival
same,survival of worms fed with OP50 (toxicity),C. elegans,didn't affect the survival
same,resistance after consecutive exposure,S. aureus NCTC 8325 [20],no resistance was observed
